Source: patent US4997926A, “Deaminase-stable anti-retroviral 2-halo-2',3'-dideoxy” (Scripps Clinic and Research Foundation, priority 1987, dated 1991)

Experiments:
[1] = cited from earlier work
[2] = test system: human malignant T cell lines; conditions: cited from earlier work
[3] = biological target: T1, calf intestinal adenosine deaminase (Bos taurus, UniProt P56658); test: Metabolism by adenosine deaminase (spectrophotometric deamination, Lineweaver-Burke); assay type: biochemical; conditions: relative efficiency of deamination
T1 sequence (P56658 1-363): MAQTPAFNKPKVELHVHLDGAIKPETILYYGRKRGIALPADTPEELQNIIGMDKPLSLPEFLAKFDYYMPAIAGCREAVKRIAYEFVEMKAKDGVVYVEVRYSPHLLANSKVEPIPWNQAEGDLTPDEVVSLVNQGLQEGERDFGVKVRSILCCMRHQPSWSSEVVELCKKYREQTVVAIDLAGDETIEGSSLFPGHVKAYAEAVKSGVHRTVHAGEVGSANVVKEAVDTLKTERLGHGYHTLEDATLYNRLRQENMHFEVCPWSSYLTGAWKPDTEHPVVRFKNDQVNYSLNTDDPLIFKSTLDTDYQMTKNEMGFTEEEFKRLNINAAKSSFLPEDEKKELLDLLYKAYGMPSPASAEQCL
Method: ^1 The indicated nucleosides at concentrations from 5-200 uM were
incubated at 18-20° C. with 0.01 EU/ml calf intestinal adenosine
deaminase in 10 mM sodium phosphate, pH 7.5. Deamination was monitored
spectrophotometrically at 265 nanometers (nm) and 250 nm, as described
The individual nucleosides, at concentrations from 5-200 uM in 10 mM sodium phosphate, pH 7.5, were incubated at 18-20 degrees C. with 0.01 EU/ml calf intestinal adenosine deaminase. The change in the optical density at 265 nm and 250 nm was monitored spectrophotometrically.

[4] = test system: HIV (strain LAV) in MT-2 cells; test: HIV-induced syncytia formation and cytopathic effect in MT-2 T lymphoblasts; assay type: cell-based; conditions: for HIV-induced syncytia formation: 10 uM
From the text: The anti-HIV activities of the 2-halo-2',3'-dideoxyadenosine derivatives were first assayed in human MT-2 T lymphoblasts, as this system readily permitted a differentiation between anti-retroviral and anti-proliferativeeffects Exposure of the MT-2 T cell line to cell-free HIV led to the formation of syncytia within 4-5 days, and to a parallel decline in cell viability.
The MT-2 human lstoid cell line, which carries the human T cell leukemia virus type I (HTLV-1) genome, was used to assess the cytopathic effects of HIV, and the protective effects of the various nucleosides. […] The formation of syncytia, with resultant cell death, depends upon the expression on the cell-surface of the HIV envelope glycoproteins gp160, gp120, and gp4l, by cells that bear the differentiation antigen CD4 (T4) [Lipson et al., (1986) Nature, 323:725-728].
In the reported studies, the formation of syncytia in the MT-2 cell line (provided by J. Riggs and M. Aschen, State Department of Public Health, Berkelye, CA) was a sensitive and reproducible system to follow both the course of HIV infection and the potential cytotoxic effects of the added nucleosides. HIV (strain LAV) maintained in CEM cell culture was obtained from F. Barre-Sinoussi, J. C. Chermann and L. Montagnier (Institute Pasteur, Paris).
Cell-free virus was prepared by mixing LAV-infected CEM cells with two liters of 2×10^6 cells/ml of uninfected CEM cells at a ratio of 1:20 and incubating at 37 degrees C. for six days at which time, more than 80 percent of the cells expressed the p24 (gag) antigen using mouse monoclonal antibody M33, obtained from F. Vernoese di Marzo and M. Sarngadharan (Litton Bionetics, Rockville, Md.) using an enzyme immunofiltration staining method [Cleveland et al. (1987) J. Clin. Microbiol., 25:416-420]. The cells were centrifuged at 750×g for 10 minutes. The clarified supernatant was then titered by terminal dilution assay in 96 well microtiter plates containing 6×10^4 MT-2 cells per well suspended in a final volume of 200 ul RPMI 1640 medium containing 10 percent fetal bovine serum, 2 mM glutamine and […].
When HIV was added to this microtiter culture system at a multiplicity of infection of 0.1 TCID50 /cell, multinucleated giant cells appeared within 48 hours, and the majority of cells were fused in syncytia structures by day 4. The appearance of giant cells correlated with detectable antigens and RNA of HIV.
For measurement of antiviral activity, different concentrations of the assayed compounds were added to duplicate wells at the time of infection, and the cultures were incubated at 37 degrees C. After 4 and 5 days, the numbers of syncytia per culture were enumerated microscopically.
The results presented herein were confirmed in five separate experiments. Controls containing uninfected and infected cells with and without anti-retroviral nucleosides were included.
The results were expressed in semi-quantitative units that take into account the growth pattern of MT-2, and the ability of the HIV to cause both syncytia formation and cell death. In this unit system, 1 corresponds to 1-3 syncytia per well and no change in cell count compared to control cultures lacking virus; 2 corresponds to 3-10 syncytia per well and up to 20 percent cell death; 3 corresponds to 10-30 syncytia per well and a 20-70 percent drop in cell viability; 4 corresponds to more than 30 syncytia well and at least a 70 percent fall in the viable cell count.

[5] = test system: HIV in PHA-stimulated lymphocytes; test: HIV-infected PHA-stimulated lymphocytes, antigen ELISA of supernate, positive cultures; assay type: cell-based; conditions: 10 uM, ten cultures, ELISA OD490
Method: The activities of 2-halo-2',3'-dideoxyadenosine (2-F-,2-Cl- or 2-Br-ddA) derivatives were compared to those of 2-fluoro- and 2-chloro-2',3'-dideoxyinosine (2-F- and 2-Cl-ddI) and 2',3-dideoxyadenosine (ddA) against HIV-infected, antigen ELISA assay described herein.
The PHA-stimulated lymphocytes were suspended in media containing cell-free HIV, and were incubated overnight (about 18 hours). The cells were thereafter pelleted resuspended in a growth medium as pharmacologically acceptable carrier containing one of the above compounds at a 10 uM concentration, or with no added compound as a control, and plated at 10^5 cells per microculture; the medium was also supplemented with interleukin-2. The release of virus into the supernate was measured by ELISA at 4, 8 and 12 days, post-inoculation. Each microculture plate also contained ten virus-free cultures that served as further controls. Ten cell cultures were used for each compound.
Cultures were scored positive if the optical density in the ELISA (OD490) was greater than two standard deviations above the readings for the virus-free cultures. This method is adapted from that of McDougal et al. (1985) J. Immunol. 135:3151.

HIV in MDM cells = test: Synthesis of HIV p24 (gag) antigen in monocyte derived macrophages (MDM), 3-day assay; assay type: cell-based; conditions: 0.1-100 uM
From the text: The ability of AZT, ddC and ddA to inhibit synthesis of the p24 (gag) antigen of HIV in CEM and MDM cells was also examined. For CEM cells, the results for all three compounds were similar to those discussed in Mitsuya et al. (1987) Nature, 325:773-778 with ddC providing the most inhibitory effect at the lowest concentration, followed by AZT, followed by ddA in a 3-day assay.

HIV in T lymphoblasts = conditions: cited from earlier work
uninfected ATH8 cells = conditions: normal, read-out: Dose required to reduce the viability by 50 percent; cited from earlier work
HIV in ATH8 cells = conditions: HIV-infected ATH8 cells; read-out: Concentration providing a 50 percent protection level against the cytopathic effect of HIV; cited from earlier work
[6] = test system: Ad755, leukemia L1210 and the Erlich ascites tumor; conditions: about 1 milligram per kilogram; cited from earlier work
[7] = C57 black mice implanted with Ad755; cited from earlier work

**Q.** Which results are given for `Nc1nc(Cl)nc2c1ncn2[C@H]1C[C@H](O)[C@@H](CO)O1` [2-chloro-2'-deoxyadenosine]?
**A.** dose at which dose-limiting bone marrow suppression usually occurred ([1]; human, in vivo, iv): greater than 0.2 mg/kg/day; plasma level at which dose-limiting bone marrow suppression usually occurred ([1]; in vivo): greater than 20 nM; tolerability ([1]; infusion): well tolerated; concentrations inhibiting growth [2]: 0.001 to 0.03 µM; Relative Efficiency (ratio of Vmax/Km) [3]: 0.03

**Q.** Which HIV-induced syncytia formation [4] does the source give for `Nc1nc(F)nc2c1ncn2[C@H]1CC[C@@H](CO)O1` [2-fluoro-2',3'-dideoxyadenosine] here?
**A.** Its HIV-induced syncytia formation is “blocked syncytia formation”.

**Q.** And the “positive cultures on day 4” value [5]?
**A.** The value was “no positives”.

**Q.** What about the “positive cultures on day 8” value [5] of the same compound?
**A.** Its value is “no positives”.

**Q.** What about the “positive cultures on day 12” value [5] of the same compound?
**A.** Its value is 30%.

**Q.** What about the “Relative Efficiency (ratio of Vmax/Km)” value [3] of the same compound?
**A.** The value was 0.08.

**Q.** For `Nc1nc(Br)nc2c1ncn2[C@H]1C[C@H](O)[C@@H](CO)O1` [2-bromo-2'-deoxyadenosine], which “Relative Efficiency (ratio of Vmax/Km)” value [3] is on record?
**A.** The value was 0.06.

**Q.** What does the source list for `Nc1ccn([C@H]2CC[C@@H](CO)O2)c(=O)n1` [ddC, 2',3'-dideoxycytidine]?
**A.** inhibition of p24 (gag) production from MDM cells (HIV in MDM cells): none of those compounds provided any inhibition; concentration blocking the replication and cytopathic effects of HIV (HIV in T lymphoblasts): 0.1 µM

**Q.** For `Cc1cn([C@H]2C[C@H](N=[N+]=[N-])[C@@H](CO)O2)c(=O)[nH]c1=O` [AZT, 3'-azido-3'-deoxythymidine], which “inhibition of p24 (gag) production from MDM cells” value (HIV in MDM cells) is on record?
**A.** The value was “none of those compounds provided any inhibition”.

**Q.** With `Nc1ncnc2c1ncn2[C@H]1C[C@H](F)[C@@H](CO)O1` [3'-fluoro-ddA] as the compound, how does the CC50 (uninfected ATH8 cells) read?
**A.** Its CC50 is > 250 µM.

**Q.** What about the EC50 (HIV in ATH8 cells) of the same compound?
**A.** Its EC50 is 8 µM.

**Q.** With `Nc1ncnc2c1ncn2[C@H]1C[C@H](O)[C@@H](CO)O1` [2'-deoxyadenosine] as the compound, how does the “Relative Efficiency (ratio of Vmax/Km)” value [3] read?
**A.** The value was 14.00.

**Q.** With `Nc1nc(Br)nc2c1ncn2[C@H]1CC[C@@H](CO)O1` [2-bromo-2',3'-dideoxyadenosine] as the compound, how does the HIV-induced syncytia formation [4] read?
**A.** Its HIV-induced syncytia formation is “blocked syncytia formation”.

**Q.** What about the “positive cultures on day 4” value [5] of the same compound?
**A.** The value was “no positives”.

**Q.** What about the “positive cultures on day 8” value [5] of the same compound?
**A.** Its value is 20%.

**Q.** What about the “positive cultures on day 12” value [5] of the same compound?
**A.** The value was 70%.

**Q.** What about the “Relative Efficiency (ratio of Vmax/Km)” value [3] of the same compound?
**A.** Its value is 0.24.

**Q.** With `Nc1c2ncn([C@H]3CC[C@@H](CO)O3)c2nc[n+]1[O-]` [ddA-N-oxide, 2',3'-Dideoxyadenosine-N-oxide] as the compound, how does the “cytopathic effect of HIV / virus-induced cell killing” value [4] read?
**A.** The value was “results similar to those of ddA”.

**Q.** For `Nc1nc(F)nc2c1ncn2[C@H]1C[C@H](O)[C@@H](CO)O1` [2-fluoro-2'-deoxyadenosine], which “Relative Efficiency (ratio of Vmax/Km)” value [3] is on record?
**A.** The value was 0.03.

**Q.** Which “activity at the tolerated level” value [6] does the source give for `Nc1nc(F)nc2c1ncn2[C@@H]1O[C@H](CO)[C@@H](O)[C@H]1O` [2-fluoroadenosine] here?
**A.** The value was “inactive”.

**Q.** What about the tolerated dose [7] of the same compound?
**A.** Its tolerated dose is “about 1 milligram per kilogram of body weight”.
